Experimental data: patent US10294202B2, “Pyrrolidinones as herbicides” (FMC Corporation, priority 2013, dated 2019)

Experiments:
barnyardgrass [1] = assay: Test B flooded paddy test; type: in vivo, Echinochloa crus-galli; settings: 250 g ai/ha, Flood; scale of 0 to 100 where 0 is no effect and 100 is complete control
Summary of the method: (§1)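 Scoring: visual, compared with untreated controls, 0 = no effect through 100 = complete control, taken 13 to 15 days after treatment in the greenhouse. Compounds had been added to paddy water over soil flooded 3 cm deep at the plants' 2-leaf stage.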

ducksalad = assay: Test B flooded paddy test; type: in vivo, Heteranthera limosa; settings: 250 g ai/ha, Flood; scale of 0 to 100 where 0 is no effect and 100 is complete control
Summary of the method: as §1

velvetleaf = assay: Test A pre-/postemergence herbicide test; type: in vivo, Abutilon theophrasti; settings: for Velvetleaf plant response rating: Preemergence, visual rating on 0 to 100 scale (0 no effect, 100 complete control)
Summary of the method: (§2)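 Seeds sown in loam soil/sand blend received a preemergence directed soil spray of test chemical in non-phytotoxic solvent with surfactant; postemergence plants (2–10 cm, one- to two-leaf stage) were sprayed with the same formulation. After about 10 days in greenhouse, injury was rated visually versus untreated controls, 0 (no effect) to 100 (complete control).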

morningglory = assay: Test A pre-/postemergence herbicide test; type: in vivo, Ipomoea spp.; settings: for Morningglory plant response rating: Preemergence, visual rating on 0 to 100 scale (0 no effect, 100 complete control)
Summary of the method: as §2

wheat = assay: Test A pre-/postemergence herbicide test; type: in vivo, Triticum aestivum; settings: for Wheat plant response rating: Preemergence, visual rating on 0 to 100 scale (0 no effect, 100 complete control)
Summary of the method: as §2

crabgrass, large = assay: Test A pre-/postemergence herbicide test; type: in vivo, Digitaria sanguinalis; settings: for Crabgrass, Large plant response rating: Preemergence, visual rating on 0 to 100 scale (0 no effect, 100 complete control)
Summary of the method: as §2

rice = assay: Test B flooded paddy test; type: in vivo, Oryza sativa; settings: 250 g ai/ha, Flood; scale of 0 to 100 where 0 is no effect and 100 is complete control
Summary of the method: as §1

pigweed = assay: Test A pre-/postemergence herbicide test; type: in vivo, Amaranthus retroflexus; settings: for Pigweed plant response rating: Preemergence, visual rating on 0 to 100 scale (0 no effect, 100 complete control)
Summary of the method: as §2

corn = assay: Test A pre-/postemergence herbicide test; type: in vivo, Zea mays; settings: for Corn plant response rating: Preemergence, visual rating on 0 to 100 scale (0 no effect, 100 complete control)
Summary of the method: as §2

sedge, umbrella = assay: Test B flooded paddy test; type: in vivo, Cyperus difformis; settings: 250 g ai/ha, Flood; scale of 0 to 100 where 0 is no effect and 100 is complete control
Summary of the method: as §1

barnyardgrass [2] = assay: Test A pre-/postemergence herbicide test; type: in vivo, Echinochloa crus-galli; settings: for Barnyardgrass plant response rating: Preemergence, visual rating on 0 to 100 scale (0 no effect, 100 complete control)
Summary of the method: as §2

giant foxtail = assay: Test A pre-/postemergence herbicide test; type: in vivo, Setaria faberii; settings: for Foxtail, Giant plant response rating: Preemergence, visual rating on 0 to 100 scale (0 no effect, 100 complete control)
Summary of the method: as §2

[3] = Postemergence, 125 g ai/ha, 0 to 100 scale, 0 no effect, 100 complete control
[4] = Postemergence, 500 g ai/ha, 0 to 100 scale (0 no effect, 100 complete control)
[5] = preemergence, 500 g ai/ha, 0 to 100 scale
[6] = preemergence, 500 g ai/ha, 0 to 100 scale (0 no effect, 100 complete control)

In the case of `O=C1NCC(c2ccc(F)c(F)c2)C1C(=O)Nc1ccccc1OC(F)(F)F` (stereo not drawn) [Compound 54], the “Plant response rating, Barnyardgrass” value (barnyardgrass [1]) is reported as 0, the “Plant response rating, Ducksalad” value (ducksalad) is reported as 70 and the “Plant response rating, Velvetleaf” value (velvetleaf; [3]) is reported as 0. For the same compound, the “Plant response rating, Velvetleaf” value (velvetleaf; [4]) was 0, the “Velvetleaf plant response rating” value (velvetleaf; 125 g ai/ha) was 0 and the “Plant response rating, Velvetleaf” value (velvetleaf; [5]) was 0. For the same compound, the “Plant response rating, Morningglory” value (morningglory; [3]) was 0, the “Plant response rating, Morningglory” value (morningglory; [4]) was 0 and the “Morningglory plant response rating” value (morningglory; 125 g ai/ha) was 0. The “Plant response rating, Morningglory” value (morningglory; [5]) was 0, the “Plant response rating, Wheat” value (wheat; [3]) was 0 and the “Plant response rating, Wheat” value (wheat; [4]) was 0. For the same compound, the “Wheat plant response rating” value (wheat; 125 g ai/ha) was 0, the “Plant response rating, Wheat” value (wheat; [5]) was 20 and the “Plant response rating, Crabgrass, Large” value (crabgrass, large; [3]) was 70. The “Plant response rating, Crabgrass, Large” value (crabgrass, large; [4]) was 80, the “Crabgrass, Large plant response rating” value (crabgrass, large; 125 g ai/ha) was 90 and the “Plant response rating, Crabgrass, Large” value (crabgrass, large; [5]) was 90. The “Plant response rating, Rice” value (rice) was 20, the “Plant response rating, Pigweed” value (pigweed; [3]) was 0 and the “Plant response rating, Pigweed” value (pigweed; [4]) was 0. The “Pigweed plant response rating” value (pigweed; 125 g ai/ha) was 0, the “Plant response rating, Pigweed” value (pigweed; [5]) was 0 and the “Plant response rating, Corn” value (corn; [3]) was 0. For the same compound, the “Plant response rating, Corn” value (corn; [4]) was 0, the “Corn plant response rating” value (corn; 125 g ai/ha) was 0 and the “Plant response rating, Corn” value (corn; [5]) was 0. The “Plant response rating, Sedge, Umbrella” value (sedge, umbrella) was 0, the “Plant response rating, Barnyardgrass” value (barnyardgrass [2]; [3]) was 0 and the “Plant response rating, Barnyardgrass” value (barnyardgrass [2]; [4]) was 0. The “Barnyardgrass plant response rating” value (barnyardgrass [2]; 125 g ai/ha) was 0, the “Plant response rating, Barnyardgrass” value (barnyardgrass [2]; [6]) was 20 and the “Plant response rating, Foxtail, Giant” value (giant foxtail; [3]) was 60. The “Plant response rating, Foxtail, Giant” value (giant foxtail; [4]) was 70, the “Foxtail, Giant plant response rating” value (giant foxtail; 125 g ai/ha) was 90 and the “Plant response rating, Foxtail, Giant” value (giant foxtail; [5]) was 90.
In the case of `Cc1cccc(NC(=O)C2C(=O)NCC2c2ccc(F)c(F)c2)c1` (stereo not drawn) [Compound 56], the “Plant response rating, Barnyardgrass” value (barnyardgrass [1]) is reported as 0, the “Plant response rating, Ducksalad” value (ducksalad) is reported as 0 and the “Plant response rating, Velvetleaf” value (velvetleaf; [3]) is reported as 0. The “Plant response rating, Velvetleaf” value (velvetleaf; [4]) was 0, the “Velvetleaf plant response rating” value (velvetleaf; 125 g ai/ha) was 0 and the “Plant response rating, Velvetleaf” value (velvetleaf; [5]) was 0. For the same compound, the “Plant response rating, Morningglory” value (morningglory; [3]) was 0, the “Plant response rating, Morningglory” value (morningglory; [4]) was 0 and the “Morningglory plant response rating” value (morningglory; 125 g ai/ha) was 0. For the same compound, the “Plant response rating, Morningglory” value (morningglory; [5]) was 0, the “Plant response rating, Wheat” value (wheat; [3]) was 0 and the “Plant response rating, Wheat” value (wheat; [4]) was 0. For the same compound, the “Wheat plant response rating” value (wheat; 125 g ai/ha) was 0, the “Plant response rating, Wheat” value (wheat; [5]) was 0 and the “Plant response rating, Crabgrass, Large” value (crabgrass, large; [3]) was 50. For the same compound, the “Plant response rating, Crabgrass, Large” value (crabgrass, large; [4]) was 80, the “Crabgrass, Large plant response rating” value (crabgrass, large; 125 g ai/ha) was 60 and the “Plant response rating, Crabgrass, Large” value (crabgrass, large; [5]) was 90. The “Plant response rating, Rice” value (rice) was 0, the “Plant response rating, Pigweed” value (pigweed; [3]) was 0 and the “Plant response rating, Pigweed” value (pigweed; [4]) was 0. The “Pigweed plant response rating” value (pigweed; 125 g ai/ha) was 0, the “Plant response rating, Pigweed” value (pigweed; [5]) was 0 and the “Plant response rating, Corn” value (corn; [3]) was 0. For the same compound, the “Plant response rating, Corn” value (corn; [4]) was 0, the “Corn plant response rating” value (corn; 125 g ai/ha) was 0 and the “Plant response rating, Corn” value (corn; [5]) was 0. For the same compound, the “Plant response rating, Sedge, Umbrella” value (sedge, umbrella) was 0, the “Plant response rating, Barnyardgrass” value (barnyardgrass [2]; [3]) was 0 and the “Plant response rating, Barnyardgrass” value (barnyardgrass [2]; [4]) was 50. The “Barnyardgrass plant response rating” value (barnyardgrass [2]; 125 g ai/ha) was 0, the “Plant response rating, Barnyardgrass” value (barnyardgrass [2]; [6]) was 40 and the “Plant response rating, Foxtail, Giant” value (giant foxtail; [3]) was 20. For the same compound, the “Plant response rating, Foxtail, Giant” value (giant foxtail; [4]) was 60, the “Foxtail, Giant plant response rating” value (giant foxtail; 125 g ai/ha) was 20 and the “Plant response rating, Foxtail, Giant” value (giant foxtail; [5]) was 50.
For `CC1(C(=O)Nc2cccc(F)c2F)C(=O)NCC1c1ccc(F)c(Cl)c1` (stereo not drawn) [Compound 61], the “Plant response rating, Barnyardgrass” value (barnyardgrass [1]) was 0, the “Plant response rating, Ducksalad” value (ducksalad) was 0 and the “Plant response rating, Velvetleaf” value (velvetleaf; [3]) was 0. For the same compound, the “Plant response rating, Velvetleaf” value (velvetleaf; [4]) was 0, the “Velvetleaf plant response rating” value (velvetleaf; 125 g ai/ha) was 0 and the “Plant response rating, Velvetleaf” value (velvetleaf; [5]) was 0. For the same compound, the “Plant response rating, Morningglory” value (morningglory; [3]) was 0, the “Plant response rating, Morningglory” value (morningglory; [4]) was 0 and the “Morningglory plant response rating” value (morningglory; 125 g ai/ha) was 0. The “Plant response rating, Morningglory” value (morningglory; [5]) was 0, the “Plant response rating, Wheat” value (wheat; [3]) was 0 and the “Plant response rating, Wheat” value (wheat; [4]) was 0. The “Wheat plant response rating” value (wheat; 125 g ai/ha) was 0, the “Plant response rating, Wheat” value (wheat; [5]) was 0 and the “Plant response rating, Crabgrass, Large” value (crabgrass, large; [3]) was 0. For the same compound, the “Plant response rating, Crabgrass, Large” value (crabgrass, large; [4]) was 70, the “Crabgrass, Large plant response rating” value (crabgrass, large; 125 g ai/ha) was 0 and the “Plant response rating, Crabgrass, Large” value (crabgrass, large; [5]) was 80. The “Plant response rating, Rice” value (rice) was 0, the “Plant response rating, Pigweed” value (pigweed; [3]) was 0 and the “Plant response rating, Pigweed” value (pigweed; [4]) was 0. The “Pigweed plant response rating” value (pigweed; 125 g ai/ha) was 0, the “Plant response rating, Pigweed” value (pigweed; [5]) was 0 and the “Plant response rating, Corn” value (corn; [3]) was 0. For the same compound, the “Plant response rating, Corn” value (corn; [4]) was 0, the “Corn plant response rating” value (corn; 125 g ai/ha) was 0 and the “Plant response rating, Corn” value (corn; [5]) was 0. The “Plant response rating, Sedge, Umbrella” value (sedge, umbrella) was 30, the “Plant response rating, Barnyardgrass” value (barnyardgrass [2]; [3]) was 0 and the “Plant response rating, Barnyardgrass” value (barnyardgrass [2]; [4]) was 20. For the same compound, the “Barnyardgrass plant response rating” value (barnyardgrass [2]; 125 g ai/ha) was 0, the “Plant response rating, Barnyardgrass” value (barnyardgrass [2]; [6]) was 0 and the “Plant response rating, Foxtail, Giant” value (giant foxtail; [3]) was 0. The “Plant response rating, Foxtail, Giant” value (giant foxtail; [4]) was 30, the “Foxtail, Giant plant response rating” value (giant foxtail; 125 g ai/ha) was 0 and the “Plant response rating, Foxtail, Giant” value (giant foxtail; [5]) was 0.
